{"source": "patent US10537541B2", "about": "“Treatment of focal segmental glomerular sclerosis (FSGS) using therapeutically effective oral doses of 10-nitro-9(E)-octadec-9-enoic acid” (Complexa, Inc., priority 2015, dated 2020)", "key": {"[1]": {"tested_on": "rat model of renal ischemia/reperfusion", "test": "Rat model of renal ischemia/reperfusion (acute kidney injury)", "assay_type": "in vivo", "details": "rats", "experimental": "Prevention of ischemic reperfusion injury: Studies were performed to test the effectiveness and the dose/exposure-response relationship of 10-nitro-9(E)-octadec-9-enoic acid in reducing acute kidney injury in a rat model of renal ischemia/reperfusion when administered prior to the insult. A well-established and reproducible rat model of contrast-induced nephropathy was not available. Because ischemic/reperfusion injury is a facet of contrast-induced nephropathy, it was considered a reasonable alternative. In this model, the renal arteries of the rat were clamped for 35 min, followed by reperfusion. Serum creatinine was measured daily for 72 hours. The animals were then sacrificed for tissue and terminal plasma. 10-nitro-9(E)-octadec-9-enoic acid was administered over 15 min intravenously at various doses at one hour prior to the injury. […]\n10-nitro-9(E)-octadec-9-enoic acid (2.5, 12.5, and 25 mg/kg) was administered 1 hr prior to the ischemic event. Plasma samples were taken at 0, 24, 48, and 72 hr following the ischemic event, and serum creatinine levels were measured in batches using mass spectrometry to achieve precision in the results."}, "healthy male subjects": {"tested_on": "healthy male subjects", "test": "Pharmacokinetic interaction study in healthy males: safety and tolerability", "assay_type": "in vivo, human", "details": "healthy males", "experimental": "Safety and tolerability was evaluated throughout the study. The timing of discharge was determined by the Investigator or designee based on safety and tolerability assessment. On dosing days, subjects remained in the research unit for a minimum of 1 h after dosing prior to discharge. On Day 4, on the first day of 10-nitro-9(E)-octadec-9-enoic acid dosing, subjects remained in the unit for 4 to 6 h after dosing prior to discharge to assess safety and tolerability.\nSafety and PK assessments were evaluated throughout the study. During the in-house portion of the study, urine was collected over the 24-h period on Day 2 and Day 12.\nSafety was evaluated by physical examinations; adverse events (AEs); vital signs (blood pressure, heart rate, respiratory rate); clinical laboratory values (hematology, biochemistry, and urinalysis), specifically, serum Mg and CPK and electrocardiograms (ECGs).\nTriplicate ECGs were obtained just prior to the start of dosing on Day 1 and single ECGs were obtained at all other time points. The average of the 3 ECG interval measurements at the pre-dose time point was considered as baseline. All 12-Lead ECGs were obtained after the subject has rested in a fully supine position for at least 10 minutes. There were no clinically significant abnormalities reported on any electrocardiogram (ECG) parameter. There were no QT/QTcF interval prolongations observed during the study."}, "[2]": {"tested_on": "deoxycorticosterone acetate (DOCA)/salt-induced model of FSGS", "test": "DOCA/salt-induced mouse model of FSGS: renoprotection, body weight, blood pressure, organ/body weight ratios", "assay_type": "in vivo, mice (129/sv strain)", "details": "DOCA/salt mice", "experimental": "10-nitro-9(E)-octadec-9-enoic acid, given orally after onset of renal injury, was evaluated for efficacy in a model for Focal Segmental Glomerular Sclerosis (FSGS) in humans. […] Mice were uni-nephrectomized and, after two weeks, implanted subcutaneously with DOCA (50 mg, 21-day release) or placebo sustained release pellets, with pellet replacement 3 weeks later. All groups, except the sham control group, also received 1% NaCl in tap water. 10-nitro-9(E)-octadec-9-enoic acid (daily oral gavage, 2.5 or 12.5 mg/kg) or enalapril (20 mg/kg/day in drinking water) treatments began 2 weeks after the first DOCA implantation and continued for 4 weeks. Enalapril was included for comparison because it is used as standard of care for FSGS and this is a positive control for the model.\nInduction of model: Male mice (129/sv strain) were purchased from Taconic Labs. The animals were uninephrectomized (Unx) at 6 weeks of age by the vendor and shipped one week after surgery. At 2 weeks post Unx, a DOCA or placebo pellet (21-day release pellets, 50 mg/pellet, Innovative Research of America, Sarasota, Fla.) was implanted s.c. All mice were then placed on a semisynthetic diet which contained a moderate fat content and a low phytoestrogen/anti-oxidant level, which approximates a normal human diet (4). A second DOCA or placebo pellet was implanted three weeks later.\nTreatment: Mice were treated with placebo, 10-nitro-9(E)-octadec-9-enoic acid at a dose of 2.5 and 12.5 mg/kg, or enalapril (standard of care) for 4 weeks by oral gavage starting 2 weeks after the first DOCA implantation. One percent NaCl in tap water was given to each group except the sham control group. Body weight was measured weekly, and doses were readjusted based on the current body weight. Urine and blood samples were collected prior to treatment and at week 2 and 4 of treatment. Mice were terminated at week 4. Data is presented as the mean+SEM for the number of animals listed in each group."}}, "note": "“Also recorded” adds a separate entry of the source."}
{"smiles": "CCCCCCCC/C(=C\\CCCCCCCC(=O)O)[N+](=O)[O-]", "note": "[CXA-10, 10-nitro-9(E)-octadec-9-enoic acid]", "values": [{"measurement": "renal structural injury (periodic acid-Schiff staining, blinded scoring)", "setting": "[1]; 12.5 mg/kg intravenously 1 hr prior to I/R injury", "result": "alleviation of injury; also recorded: preserved normal renal structure"}, {"measurement": "serum creatinine following ischemia", "setting": "[1]; 12.5 mg/kg intravenously 1 hr prior to ischemic event, 24 hr, p<0.01 at 24 hr only", "result": "statistically significant decrease; also recorded: significantly lowered"}, {"measurement": "GI AEs related to 10-nitro-9(E)-octadec-9-enoic acid", "setting": "healthy male subjects; 150 mg daily with food", "result": "not observed"}, {"measurement": "serum creatinine levels", "setting": "healthy male subjects; 150 mg daily", "result": "no changes"}, {"measurement": "24-hour urine creatinine excretion measurements", "setting": "healthy male subjects; 150 mg daily, Day 2 versus Day 12", "result": "nor any relevant changes"}, {"measurement": "renal protector (renoprotective effect)", "setting": "[2]; 2.5 mg/kg/day oral gavage", "result": "highly effective as a renal protector"}, {"measurement": "body weight gains", "setting": "[2]; 10-nitro-9(E)-octadec-9-enoic acid 2.5 or 12.5 mg/kg p.o. or enalapril 20 mg/kg/d, 4 weeks", "result": "unaffected"}, {"measurement": "kidney/body weight and heart/body ratios", "setting": "[2]; low dose 2.5 mg/kg p.o. QD, 4 weeks", "result": "reduced"}]}
